{
  "source": "paper PMC5981210",
  "about": "“Molecular recognition of wood polyphenols by phase II detoxification enzymes of the white rot Trametes versicolor” (Scientific Reports, 2018)",
  "key": {"[1]": {"target": "T1, TvGSTO1S (Trametes versicolor, UniProt R7S9J3)", "T1 construct": "gene TRAVEDRAFT_75639; produced in E. coli Rosetta2 DE3 pLysS", "T1 sequence (R7S9J3 1-256)": "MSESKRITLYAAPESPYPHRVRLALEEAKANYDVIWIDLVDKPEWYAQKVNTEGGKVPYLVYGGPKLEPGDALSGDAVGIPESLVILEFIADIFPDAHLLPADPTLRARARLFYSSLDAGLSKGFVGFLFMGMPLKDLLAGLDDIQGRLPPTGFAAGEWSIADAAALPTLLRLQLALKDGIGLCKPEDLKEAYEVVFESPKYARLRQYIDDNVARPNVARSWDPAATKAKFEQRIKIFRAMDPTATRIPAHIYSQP", "assay": "thermal shift assay, SYPRO Orange", "format": "binding", "details": "100 µM ligand, 10 µM protein, Tris-HCl pH 8", "description": "thermal shift assay, SYPRO Orange on TvGSTO1S"}, "[2]": {"target": "T2, TvGSTO6S (Trametes versicolor, UniProt A0A384E158)", "T2 construct": "produced in E. coli Rosetta2 DE3 pLysS; homodimer; serine-type omega GST", "T2 sequence (A0A384E158 1-246)": "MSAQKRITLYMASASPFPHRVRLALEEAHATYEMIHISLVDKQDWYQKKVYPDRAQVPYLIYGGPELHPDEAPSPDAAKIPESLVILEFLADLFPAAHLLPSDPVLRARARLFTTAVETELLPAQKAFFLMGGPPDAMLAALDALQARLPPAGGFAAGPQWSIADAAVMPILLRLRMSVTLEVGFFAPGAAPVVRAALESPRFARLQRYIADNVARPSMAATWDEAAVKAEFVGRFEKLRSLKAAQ", "assay": "thermal shift assay, SYPRO Orange", "format": "binding", "details": "100 µM ligand, 10 µM protein, Tris-HCl pH 8", "description": "thermal shift assay, SYPRO Orange on TvGSTO6S"}, "[3]": {"target": "T3, TvGSTO5S (Trametes versicolor, UniProt R7S6M8)", "T3 construct": "gene TRAVEDRAFT_54358; produced in E. coli Rosetta2 DE3 pLysS", "T3 sequence (R7S6M8 1-241)": "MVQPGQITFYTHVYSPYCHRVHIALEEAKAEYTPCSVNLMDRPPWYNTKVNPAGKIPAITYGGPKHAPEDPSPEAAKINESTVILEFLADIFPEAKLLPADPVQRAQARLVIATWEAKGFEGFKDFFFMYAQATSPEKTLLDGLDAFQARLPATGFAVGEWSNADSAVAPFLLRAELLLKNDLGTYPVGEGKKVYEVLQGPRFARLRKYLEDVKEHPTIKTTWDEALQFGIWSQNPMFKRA", "assay": "thermal shift assay, SYPRO Orange", "format": "binding", "details": "100 µM ligand, 10 µM protein, Tris-HCl pH 8", "description": "thermal shift assay, SYPRO Orange on TvGSTO5S"}, "[4]": {"target": "T4, TvGSTO2S (Trametes versicolor, UniProt A0A452CSY5)", "T4 construct": "gene TRAPUB_12770; produced in E. coli Rosetta2 DE3 pLysS", "T4 sequence (A0A452CSY5 1-239)": "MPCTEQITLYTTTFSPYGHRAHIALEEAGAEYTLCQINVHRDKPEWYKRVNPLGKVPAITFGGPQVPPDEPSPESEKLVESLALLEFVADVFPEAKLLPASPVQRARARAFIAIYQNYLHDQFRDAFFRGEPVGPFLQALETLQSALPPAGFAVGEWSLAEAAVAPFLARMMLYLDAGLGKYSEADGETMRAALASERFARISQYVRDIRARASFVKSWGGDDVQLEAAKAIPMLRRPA", "assay": "thermal shift assay, SYPRO Orange", "format": "binding", "details": "100 µM ligand, 10 µM protein, Tris-HCl pH 8", "description": "thermal shift assay, SYPRO Orange on TvGSTO2S"}, "[5]": {"target": "T5, TvGSTO3S (Trametes versicolor, UniProt A0A384E145)", "T5 construct": "produced in E. coli Rosetta2 DE3 pLysS; homodimer; serine-type omega GST", "T5 sequence (A0A384E145 1-240)": "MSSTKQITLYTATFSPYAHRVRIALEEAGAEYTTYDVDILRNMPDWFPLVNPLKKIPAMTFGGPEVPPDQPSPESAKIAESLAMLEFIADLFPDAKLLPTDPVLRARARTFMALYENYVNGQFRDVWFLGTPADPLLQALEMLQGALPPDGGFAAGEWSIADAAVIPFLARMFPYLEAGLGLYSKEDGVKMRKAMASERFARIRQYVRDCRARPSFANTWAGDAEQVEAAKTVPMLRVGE", "assay": "inhibition of GSH-transferase activity, mixed model fit", "format": "biochemical", "details": "PEITC 25–300 µM as substrate, 1 mM GSH, 100 mM phosphate pH 6.4, 25 °C"}, "[6]": {"target": "Trametes versicolor glutathione transferase Omega 3S (TvGSTO3S) (Trametes versicolor)", "assay": "crystal structure; TvGSTO3S (13 mg/mL) crystallised by microbatch under oil at 278 K; 30% (w/v) PEG 400, 0.2 M calcium acetate, 0.1 M acetate buffer pH 4.5; apo and ligand complexes; homodimer in the crystal"}, "[7]": {"target": "Trametes versicolor glutathione transferase Omega 6S (TvGSTO6S) (Trametes versicolor)", "assay": "crystal structure; TvGSTO6S (26 mg/mL) crystallised by hanging drop with seeding; 25% (w/v) PEG 1500, 0.1 M MMT buffer pH 6.5; apo and naringenin complex ('dry soaking'); homodimer in the crystal"}},
  "data": [
    {"compound": "O=C(c1ccc(O)cc1O)c1ccc(O)cc1O", "note": "[2,2′,4,4′-Tetrahydroxy benzophenone]", "values": [
      {"measurement": "TvGSTO1S", "setting": "[1]", "value": 3.74, "unit": "°C"},
      {"measurement": "TvGSTO6S", "setting": "[2]", "value": 3.40, "unit": "°C"}
    ]},
    {"compound": "O=C(c1ccccc1)c1ccc(O)c(O)c1O", "note": "[2,3,4-Trihydroxy benzophenone]", "values": [
      {"measurement": "TvGSTO5S", "setting": "[3]", "value": -12.89, "unit": "°C"},
      {"measurement": "TvGSTO2S", "setting": "[4]", "value": 2.92, "unit": "°C"},
      {"measurement": "TvGSTO6S", "setting": "[2]", "value": 4.15, "unit": "°C"}
    ]},
    {"compound": "O=C(c1ccc(O)cc1)c1ccc(O)cc1O", "note": "[2,4,4′-Trihydroxy benzophenone]", "values": [
      {"measurement": "TvGSTO1S", "setting": "[1]", "value": 2.74, "unit": "°C"}
    ]},
    {"compound": "O=C(c1ccccc1)c1ccc(O)cc1O", "note": "[2,4-Dihydroxy benzophenone]", "values": [
      {"measurement": "TvGSTO2S", "setting": "[4]", "value": 2.56, "unit": "°C"}
    ]},
    {"compound": "COc1c(O)cc(O)c2c(=O)cc(-c3ccccc3)oc12", "note": "[wogonin]", "values": [
      {"measurement": "Ki", "setting": "[5]", "value": "2.89 ± 1.24", "unit": "µM"}
    ]},
    {"compound": "Trametes versicolor glutathione transferase Omega 3S (TvGSTO3S) (enzyme)", "values": [
      {"measurement": "stoichiometry N", "setting": "[6]", "value": 2}
    ]},
    {"compound": "Trametes versicolor glutathione transferase Omega 6S (TvGSTO6S) (enzyme)", "values": [
      {"measurement": "stoichiometry N", "setting": "[7]", "value": 2}
    ]}
  ]
}
